23 compounds from PubChem BioAssay AID330 (DTP/NCI, 2004) can be followed below.

Values joined by “and” are separate entries in the source; they are usually repeats but may differ in a detail not shown here. Equal values may be shown once. Inconclusive results and toxic doses are left out.

For this test, the system named is P388 leukemia ip, CD2F1 mice, survival T/C. As to the kind of experiment: NCI In Vivo Anticancer Drug Screen. Data for tumor model P388 Leukemia (intraperitoneal) in CD2F1 (CDF1) mice. The settings on record: endpoint: median survival time, higher = longer survival. The method, boiled down:
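Mice carrying the transplanted tumor received test compound or vehicle. Survival was recorded in each group, and the value is the treated-group measurement divided by that of the vehicle-treated control group.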

Where [1] appears, read: dose: 100.0 mg/kg/injection, schedule: Q01DX009 (ip), vehicle: saline with Tween-80.
Setting [2] is: dose: 200.0 mg/kg/injection, schedule: Q01DX009 (ip), vehicle: saline with Tween-80.
Where [3] appears, read: dose: 400.0 mg/kg/injection, schedule: Q01DX009 (ip), vehicle: saline with Tween-80.
[4] abbreviates: dose: 6.25 mg/kg/injection, schedule: Q01DX009 (ip), vehicle: saline with Tween-80.
Where [5] appears, read: dose: 12.5 mg/kg/injection, schedule: Q01DX009 (ip), vehicle: saline with Tween-80.
The mark [6] stands for this setting: dose: 25.0 mg/kg/injection, schedule: Q01DX009 (ip), vehicle: saline with Tween-80.
Setting [7] is: dose: 50.0 mg/kg/injection, schedule: Q01DX009 (ip), vehicle: saline with Tween-80.
[8] abbreviates: dose: 0.75 mg/kg/injection, schedule: Q01DX009 (ip), vehicle: saline with Tween-80.
The mark [9] stands for this setting: dose: 3.0 mg/kg/injection, schedule: Q01DX009 (ip), vehicle: saline with Tween-80.
[10] abbreviates: dose: 50.0 mg/kg/injection, schedule: Q01DX005 (ip), vehicle: Klucel (hydroxypropylcellulose) (HPC).
The mark [11] stands for this setting: dose: 100.0 mg/kg/injection, schedule: Q01DX005 (ip), vehicle: Klucel (hydroxypropylcellulose) (HPC).
The mark [12] stands for this setting: dose: 200.0 mg/kg/injection, schedule: Q01DX005 (ip), vehicle: Klucel (hydroxypropylcellulose) (HPC).
The mark [13] stands for this setting: dose: 50.0 mg/kg/injection, schedule: Q01DX009 (ip), vehicle: Klucel (hydroxypropylcellulose) (HPC).
The mark [14] stands for this setting: dose: 100.0 mg/kg/injection, schedule: Q01DX009 (ip), vehicle: Klucel (hydroxypropylcellulose) (HPC).
Setting [15] is: dose: 25.0 mg/kg/injection, schedule: Q01DX005 (ip), vehicle: saline with Tween-80.
Setting [16] is: dose: 50.0 mg/kg/injection, schedule: Q01DX005 (ip), vehicle: saline with Tween-80.
[17] abbreviates: dose: 200.0 mg/kg/injection, schedule: Q01DX005 (ip), vehicle: saline with Tween-80.

With `CCC1(O)CN2CCc3c([nH]c4ccccc34)C(C(=O)OC)(c3cc4c(cc3OC)N(C)C3C(O)(C(=O)OC)C(OC(C)=O)C5(CC)C=CCN6CCC43C65)CC(C2=O)C1O` (stereo unspecified), the T/C reads like this: (dose: 25.0 mg/kg/injection, schedule: Q01DX001 (ip), vehicle: distilled water + Tween-80) 107 % of control; (dose: 25.0 mg/kg/injection, schedule: Q01DX001 (ip), vehicle: suspension in saline) 104 % of control; (dose: 50.0 mg/kg/injection, schedule: Q01DX001 (ip), vehicle: suspension in saline) 110 % of control; (dose: 100.0 mg/kg/injection, schedule: Q01DX001 (ip), vehicle: suspension in saline) 120 % of control; (dose: 200.0 mg/kg/injection, schedule: Q01DX001 (ip), vehicle: distilled water + Tween-80) 154 % of control.

For the compound `NC(C(=O)O)C(=O)c1ccccc1` (stereo unspecified), the T/C by setting is: under setting [1], 100 % of control; under setting [2], 100 % of control; under setting [3], 118 % of control.

For the compound `N#Cc1ncc(-c2ccccc2)nc1Cl`, the T/C was 100 % of control under setting [4]; 104 % of control under setting [5]; 100 % of control under setting [6]; 110 % of control under setting [7]; 100 % of control (dose: 50.0 mg/kg/injection, schedule: Q04DX003 (ip), vehicle: saline with Tween-80); 120 % of control under setting [1]. Also, the T/C (dose: 100.0 mg/kg/injection, schedule: Q04DX003 (ip), vehicle: saline with Tween-80) was 105 % of control and the T/C (dose: 200.0 mg/kg/injection, schedule: Q04DX003 (ip), vehicle: saline with Tween-80) was 100 % of control.

`CCCC[S][Sn]([CH2]CCC)([CH2]CCC)[S]CCCC`: the T/C under setting [8] was 121 % of control and the T/C under setting [9] was 152 % of control.

Take `COc1ccc(OC)c(/C=C/c2ccc3ccccc3n2)c1`: the T/C by setting is: under setting [1], 90 % of control; under setting [2], 90 % of control; under setting [3], 104 % of control.

Turning to `Cn1c(C(C)(O)c2cc3c(Cl)nccc3n2C)cc2c(Cl)nccc21`, the T/C is, setting by setting: under setting [10], 103 % of control; under setting [11], 105 % of control; under setting [12], 106 % of control.

`c1ccc(-c2nnc3nn4c(-c5ccccc5)cnnc4c3c2-c2ccccc2)cc1`: the T/C under setting [10] is 93 % of control, the T/C under setting [11] is 91 % of control and the T/C under setting [12] was 90 % of control.

With `C[C@H]1CC[C@@H]2O[C@@]23C(=O)OC2OC(C)(C)[C@@H]([C@H]2O)[C@]13C`, the T/C under setting [10] is 102 % of control, the T/C under setting [11] is 96 % of control and the T/C under setting [12] is 107 % of control.

Turning to `O=C1/C(=C/c2ccc(O)c(O)c2)Cc2ccccc21`, the T/C by setting is: under setting [6], 102 % of control; under setting [7], 103 % of control; under setting [1], 105 % of control; under setting [2], 103 % of control.

For `CC(S)c1nc2ccccc2[nH]1` (stereo unspecified), the T/C by setting is: (dose: 100.0 mg/kg/injection, schedule: Q01DX001 (ip), vehicle: Klucel + Tween-80) 100 % of control; (dose: 200.0 mg/kg/injection, schedule: Q01DX001 (ip), vehicle: Klucel + Tween-80) 97 % of control; (dose: 400.0 mg/kg/injection, schedule: Q01DX001 (ip), vehicle: Klucel + Tween-80) 111 % of control.

`C/C(=N/NC(N)=S)c1ccc2ccccc2c1`: the T/C is 109 % of control under setting [8]; 110 % of control (dose: 1.5 mg/kg/injection, schedule: Q01DX009 (ip), vehicle: saline with Tween-80); 108 % of control under setting [9]; 117 % of control (dose: 5.33 mg/kg/injection, schedule: Q01DX009 (ip), vehicle: saline with Tween-80); 121 % of control (dose: 6.0 mg/kg/injection, schedule: Q01DX009 (ip), vehicle: saline with Tween-80).

On to `C[CH2][Sn]1([CH2]C)[O]S(=O)(=O)[O]1`, for which the T/C (dose: 1.56 mg/kg/injection, schedule: Q01DX005 (ip), vehicle: saline) was 124 % of control.

Consider `CN1C(=O)Cn2c(n[nH]c(=O)c2=O)-c2cc(Cl)ccc21`, for which the T/C under setting [13] was 95 % of control and the T/C under setting [14] was 86 % of control.

For the compound `COc1cc(O)c(O)cc1C(C)(C)C`, the T/C reads like this: (dose: 22.5 mg/kg/injection, schedule: Q01DX005 (ip), vehicle: saline with Tween-80) 106 % of control; (dose: 45.0 mg/kg/injection, schedule: Q01DX005 (ip), vehicle: saline with Tween-80) 110 % of control; (dose: 90.0 mg/kg/injection, schedule: Q01DX005 (ip), vehicle: saline with Tween-80) 97 % of control.

Regarding `O=C1NC(=O)N(c2cccc(Cl)c2)C1=O`, the T/C was 106 % of control under setting [13]; 109 % of control under setting [14]; 102 % of control (dose: 200.0 mg/kg/injection, schedule: Q01DX009 (ip), vehicle: Klucel (hydroxypropylcellulose) (HPC)).

As to `CCOc1cccc(/C=N/NC(=O)C(=O)Nc2cccc(C(F)(F)F)c2)c1O`, the T/C was 98 % of control (dose: 12.5 mg/kg/injection, schedule: Q01DX005 (ip), vehicle: Klucel (hydroxypropylcellulose) (HPC)); 95 % of control (dose: 25.0 mg/kg/injection, schedule: Q01DX005 (ip), vehicle: Klucel (hydroxypropylcellulose) (HPC)); 89 % of control and 90 % of control under setting [10].

For the compound `Cc1cc(N(CC(C)Br)CC(C)Br)ccc1N=Nc1ccccc1C(=O)O` (stereo unspecified), the T/C by setting is: under setting [4], 196 % of control; under setting [5], 108 % of control; (dose: 12.5 mg/kg/injection, schedule: Q01DX009 (oral), vehicle: saline with Tween-80) 115 % of control; (dose: 50.0 mg/kg/injection, schedule: Q01DX009 (oral), vehicle: saline with Tween-80) 157 % of control; (dose: 100.0 mg/kg/injection, schedule: Q01DX009 (oral), vehicle: saline with Tween-80) 89 % of control.

In the case of `COc1ccccc1CN1CC(C)N(N=Cc2c3c(O)c4c(O)c(C)c5c(c4c2O)C(=O)C(C)(O/C=C/C(OC)C(C)C(OC(C)=O)C(C)C(O)C(C)C(O)C(C)/C=C/C=C(\C)C(=O)N3)O5)C(C)C1` (stereo unspecified), the T/C under setting [7] is 102 % of control, the T/C under setting [1] is 107 % of control and the T/C under setting [2] is 117 % of control.

For the compound `CN1c2ccccc2S(=O)(=O)n2c(COc3ccccc3)nnc21`, the T/C (dose: 12.5 mg/kg/injection, schedule: Q01DX005 (ip), vehicle: saline with Tween-80) was 97 % of control; the T/C under setting [15] was 97 % of control; the T/C under setting [16] is 100 % of control and 91 % of control; the T/C under setting [17] is 88 % of control.

For `O=C(c1ccccc1)C(Cl)C(Cl)c1ccccc1` (stereo unspecified), the T/C is, setting by setting: under setting [15], 102 % of control; under setting [16], 105 % of control; (dose: 100.0 mg/kg/injection, schedule: Q01DX005 (ip), vehicle: saline with Tween-80) 101 % of control; under setting [17], 100 % of control.

Consider `CC(C)C/C=C\CCCCCCCCCC(=O)NCC(=O)O`, for which the T/C runs as follows: (dose: 12.5 mg/kg/injection, schedule: Q01DX009 (ip), vehicle: distilled water + Tween-80) 93 % of control; (dose: 25.0 mg/kg/injection, schedule: Q01DX009 (ip), vehicle: distilled water + Tween-80) 92 % of control; (dose: 50.0 mg/kg/injection, schedule: Q01DX009 (ip), vehicle: distilled water + Tween-80) 95 % of control; (dose: 100.0 mg/kg/injection, schedule: Q01DX009 (ip), vehicle: distilled water + Tween-80) 93 % of control; (dose: 200.0 mg/kg/injection, schedule: Q01DX009 (ip), vehicle: distilled water + Tween-80) 100 % of control.

Regarding `CC(=O)n1c(Cl)c(/C=N/NS(=O)(=O)c2ccc(C)cc2)c2ccccc21`, the T/C was 100 % of control (dose: 25.0 mg/kg/injection, schedule: Q01DX001 (ip), vehicle: saline with Tween-80); 86 % of control and 88 % of control (dose: 50.0 mg/kg/injection, schedule: Q01DX001 (ip), vehicle: saline with Tween-80); 91 % of control (dose: 100.0 mg/kg/injection, schedule: Q01DX001 (ip), vehicle: saline with Tween-80).

As to `C1CN2CCN3CCCN(CCN(C1)C2)C3`, the T/C reads like this: (dose: 12.5 mg/kg/injection, schedule: Q01DX005 (ip), vehicle: saline) 102 % of control; (dose: 25.0 mg/kg/injection, schedule: Q01DX005 (ip), vehicle: saline) 107 % of control; under setting [16], 101 % of control.
